One data set in a line: in vitro. The settings on record: human, Caco-2, Caco-2 (cm/sec).
Data set [1] is described as follows: Membrane permeability test of cyclic peptides (Caco-2, modified/improved method of WO 2018/124162). Particulars: human.
The mark [2] stands for this setting: Caco-2, Caco-2 (membrane permeability), Table 10, cyclic peptides containing Ser(S-4-F2-Pyrro-Me) (G) or Nva(2-R-4-F2-Pyrro) (H).

Structures are written as SMILES. Like-named read-outs stand apart in the source and are kept apart here. *1 amine or outer side, *2 acyl side, *3 side chain or, on linkers, in order; H or OH if unused. Where a SMILES comes first, the peptide text is derived from it. Bridges are numbered along the chain shown (N, C = ends). [ ]: non-standard residue; d: D form. The star is where a group is joined. hPhe(3-OMe,4-CONHMe) = CNC(=O)c1ccc(CC[C@H](N)C(=O)O)cc1OC; X5 = O=C([C@H](CCC[C@@H]1CC(F)(F)CN1)N[*:1])[*:2]; CH2(1,2,4-oxadiazolon-3-yl) = O=c1[nH]c(C*)no1; NMePhe(3-Cl) = CN[C@@H](Cc1cccc(Cl)c1)C(=O)O; Pro(4,4-F2)ψ(CH2) = FC1(F)CN[C@H](C*)C1; hhPhe = N[C@@H](CCCc1ccccc1)C(=O)O; NMeF = CN[C@@H](Cc1ccccc1)C(=O)O; NMeGABA = CN(CCCC(=O)[*:2])[*:1]; NMeI = CC[C@H](C)[C@H](NC)C(=O)O; NMeD = CN[C@@H](CC(=O)O)C(=O)O; CH2CH(OH)CF3 = OC(C*)C(F)(F)F; NMeL = CN[C@@H](CC(C)C)C(=O)O; dNMeL = CN[C@H](CC(C)C)C(=O)O; NMeV = CN[C@H](C(=O)O)C(C)C; NMeAbu = CC[C@H](NC)C(=O)O; NMeA = CN[C@@H](C)C(=O)O; Piperidide = C1CCN(*)CC1; dNMeA = CN[C@H](C)C(=O)O; NBuGly = CCCCNCC(=O)O; Bn = c1ccc(C*)cc1; Sar = CNCC(=O)O; tBu = CC(C)(C)*

Consider `CC[C@H](C)[C@H]1C(=O)N[C@@H]([C@@H](C)O)C(=O)N(C)CC(=O)N(C)[C@@H](CC(C)C)C(=O)N[C@H](C(=O)N2CCCCC2)CC(=O)N(C)[C@@H](C)C(=O)NC(COc2cccc(Cl)c2)C(=O)N(C)[C@@H](CC(C)C)C(=O)N(C)[C@@H](Cc2ccccc2)C(=O)N[C@@H](C)C(=O)N(C)[C@@H](Cc2ccccc2)C(=O)N1C` (stereo partly drawn) [pd188], for which the “Caco-2” value in the data set on Caco-2 and with Caco-2 (human) was 1.3e-06 cm/s in each case. In the data set “in vitro”, this molecule registered a Papp of 1.8 ×10⁻⁶ cm/s.

`CC(C)C[C@H]1C(=O)N[C@@H]([C@@H](C)O)C(=O)N(C)CC(=O)N(C)[C@@H](Cc2ccccc2)C(=O)N(C)[C@@H](CC(C)C)C(=O)N[C@@H](COC(C)(C)C)C(=O)N(C)[C@@H](CC(C)C)C(=O)N[C@H](C(=O)N2CCCCC2)CC(=O)N(C)CC(=O)N(C)[C@@H](Cc2ccccc2)C(=O)N[C@@H](COCc2ccccc2)C(=O)N1C` [pd177] ([Sar][NMeF]S(Bn)[NMeL]T[Sar][NMeF][NMeL]S(tBu)[NMeL]D-Piperidide; lactam N-11): the “Caco-2” value in the data set with Caco-2 worked out at 3e-06 cm/s. The same molecule returned an apparent permeability (Papp) in “in vitro” of 3 ×10⁻⁶ cm/s.

On to `CC[C@H](C)[C@@H]1NC(=O)[C@H](Cc2ccccc2)N(C)C(=O)CN(C)C(=O)C[C@@H](C(=O)N2CCCCC2)NC(=O)[C@H](C)N(C)C(=O)[C@H](CCCc2ccccc2)NC(=O)[C@H](CC(C)C)N(C)C(=O)[C@H](Cc2ccccc2)N(C)C(=O)CN(C)C(=O)[C@H]([C@@H](C)O)NC(=O)[C@H](CC(C)C)N(C)C1=O` [pd190] ([Sar][NMeF]I[NMeL]T[Sar][NMeF][NMeL][hhPhe][NMeA]D-Piperidide; lactam N-11), for which the “Caco-2” value with Caco-2 was 1.5e-06 cm/s. In “in vitro”, this molecule displayed an apparent permeability coefficient (Papp) of 1.5 ×10⁻⁶ cm/s.

With `CC(C)C[C@@H]1NC(=O)[C@H](Cc2ccccc2)N(C)C(=O)[C@@H](C)N(C)C(=O)C[C@@H](C(=O)N2CCCCC2)N(C)C(=O)[C@H](Cc2ccccc2)N(C)C(=O)[C@H](Cc2ccccc2)N(C)C(=O)[C@H](COC(C)(C)C)NC(=O)[C@H](C(C)C)N(C)C(=O)CN(C)C(=O)[C@H]([C@@H](C)O)NC(=O)[C@H](CC(C)C)N(C)C1=O` [pd199] ([dNMeA][NMeF]L[NMeL]T[Sar][NMeV]S(tBu)[NMeF][NMeF][NMeD]-Piperidide; lactam N-11), the “Caco-2” value with Caco-2 worked out at 2.6e-06 cm/s. The same molecule showed a Papp in “in vitro” of 2.6 ×10⁻⁶ cm/s.

Take `CC(C)C[C@H]1C(=O)N(C)[C@@H](C(C)C)C(=O)N[C@@H](Cc2ccccc2)C(=O)N[C@H](C(=O)N(C)[C@@H](Cc2ccccc2)C(=O)N[C@@H](C)C(=O)N2CCCCC2)CC(=O)N(C)CCCC(=O)N[C@@H](C(C)C)C(=O)N(C)[C@@H](CC(C)C)C(=O)N[C@@H]([C@@H](C)O)C(=O)N(C)[C@@H](Cc2ccccc2)C(=O)NCC(=O)N1C` [pd198] ([NMeGABA]V[NMeL]T[NMeF]G[NMeL][NMeV]FD[NMeF]A-Piperidide; lactam N-10): the “Caco-2” value in the data set on Caco-2 was 2.7e-06 cm/s. Besides, the Papp in “in vitro” came out at 2.7 ×10⁻⁶ cm/s.

On to `CCCCN1CC(=O)N(C)[C@@H](CC(C)C)C(=O)N[C@@H](COC(C)(C)C)C(=O)N(C)[C@@H](Cc2ccccc2)C(=O)N(C)[C@@H](CC(C)C)C(=O)N[C@H](C(=O)N2CCCCC2)CC(=O)N[C@H](C(C)C)C(=O)N(C)[C@@H](Cc2ccccc2)C(=O)N[C@@H](COCC(O)C(F)(F)F)C(=O)N(C)[C@@H](CC(C)C)C(=O)N[C@@H]([C@@H](C)O)C1=O` (stereo partly drawn) [Compound D01] ([dV][NMeF]S(CH2CH(OH)CF3)[NMeL]T[NBuGly][NMeL]S(tBu)[NMeF][NMeL]D-Piperidide; lactam N-11), for which the “Caco-2 (membrane permeability)” value with Caco-2 (human) is 7e-08 cm/s.

Turning to `CC(C)C[C@H]1C(=O)N[C@H](C(=O)N2CCCCC2)CC(=O)N(C)[C@@H](C)C(=O)N[C@@H](CCCc2ccccc2)C(=O)N(C)[C@@H](CC(C)C)C(=O)N(C)[C@@H](Cc2ccccc2)C(=O)N[C@@H](C)C(=O)N(C)[C@@H](Cc2ccccc2)C(=O)N(C)[C@@H](C(C)C)C(=O)N[C@@H]([C@@H](C)O)C(=O)N(C)CC(=O)N1C` [pd191] ([NMeA][hhPhe][NMeL][NMeF]A[NMeF][NMeV]T[Sar][NMeL]D-Piperidide; lactam N-11), the “Caco-2” value with Caco-2 amounted to 1.5e-06 cm/s. The molecule further displayed a Papp in “in vitro” of 1.5 ×10⁻⁶ cm/s.

For the molecule `CC(C)C[C@H]1C(=O)N[C@@H](COC(C)(C)C)C(=O)N(C)[C@@H](Cc2ccccc2)C(=O)N(C)[C@@H](C)C(=O)N[C@H](C(=O)N2CCCCC2)CC(=O)N[C@H](C(C)C)C(=O)N(C)[C@@H](Cc2ccccc2)C(=O)N[C@@H](CCCc2ccccc2)C(=O)N(C)[C@@H](CC(C)C)C(=O)N[C@@H]([C@@H](C)O)C(=O)N(C)CC(=O)N1C` [pd192] ([dV][NMeF][hhPhe][NMeL]T[Sar][NMeL]S(tBu)[NMeF][NMeA]D-Piperidide; lactam N-11), the “Caco-2” value in the data set on Caco-2 was determined as 1.1e-06 cm/s. In “in vitro”, this molecule showed a Papp of 1.1 ×10⁻⁶ cm/s.

With `CC(C)C[C@@H]1NC(=O)[C@H](CC(C)C)N(C)C(=O)[C@H](C)N(C)C(=O)C[C@@H](C(=O)N2CCCCC2)NC(=O)[C@H](CC(C)C)N(C)C(=O)[C@H](Cc2ccccc2)N(C)C(=O)[C@H](Cc2ccccc2)N(C)C(=O)[C@H]([C@@H](C)O)NC(=O)[C@H](Cc2ccccc2)N(C)C1=O` [pd211] ([NMeA][NMeL]L[NMeF]T[NMeF][NMeF][NMeL]D-Piperidide; lactam N-9), the “Caco-2” value in the data set on Caco-2 (human) is 1.4e-05 cm/s.

Take `CCCCN1CC(=O)N(C)[C@@H](CC(C)C)C(=O)N[C@@H](COC(C)(C)C)C(=O)N(C)[C@@H](Cc2ccccc2)C(=O)N(C)[C@@H](CC(C)C)C(=O)N[C@H](C(=O)N2CCCCC2)CC(=O)N[C@H](C(C)C)C(=O)N(C)[C@@H](Cc2ccccc2)C(=O)N[C@@H](COCC(O)C(F)(F)F)C(=O)N(C)[C@@H](CC(C)C)C(=O)N[C@@H]([C@@H](C)O)C1=O` (stereo partly drawn) [Compound C01] ([dV][NMeF]S(CH2CH(OH)CF3)[NMeL]T[NBuGly][NMeL]S(tBu)[NMeF][NMeL]D-Piperidide; lactam N-11): the “Caco-2 (membrane permeability)” value with Caco-2 (human) worked out at 1.5e-07 cm/s.

On to `CCCCN1CC(=O)N(C)[C@@H](Cc2cccc(Cl)c2)C(=O)N(C)[C@@H](CC(C)C)C(=O)N[C@@H](COCc2noc(=O)[nH]2)C(=O)N(C)[C@@H](CC(C)C)C(=O)N[C@H](C(=O)N2CCCCC2)CC(=O)N(C)CC(=O)N(C)[C@@H](CC(C)C)C(=O)N[C@@H]([C@@H](C)CC)C(=O)N(C)[C@@H](CC(C)C)C(=O)N[C@@H]([C@@H](C)O)C1=O` [AP50] ([Sar][NMeL]I[NMeL]T[NBuGly][NMePhe(3-Cl)][NMeL]S(CH2(1,2,4-oxadiazolon-3-yl))[NMeL]D-Piperidide; lactam N-11), for which the apparent permeability (Papp) in data set [1] (Caco-2, Caco-2 (cm/sec), membrane permeability of cyclic peptides, Caco-2) came to 0.11 ×10⁻⁶ cm/s.

In turn, `CCCCN1CC(=O)N(C)[C@@H](CC(C)C)C(=O)N[C@H](C(=O)N2CCCCC2)CC(=O)N(C)[C@@H](CC)C(=O)N[C@@H](CC(C)C)C(=O)N(C)[C@@H](CC(C)C)C(=O)N(C)[C@@H](Cc2ccccc2)C(=O)N[C@@H](CCC[C@@H]2CC(F)(F)CN2)C(=O)N(C)[C@@H](C)C(=O)N(C)[C@@H](CC(C)C)C(=O)N[C@@H]([C@@H](C)O)C1=O` [Compound H04] ([NMeAbu]L[NMeL][NMeF][X5][NMeA][NMeL]T[NBuGly][NMeL]D-Piperidide; lactam N-11) showed a Papp in data set [1] (setting [2]) of 0.93 ×10⁻⁶ cm/s.

`CC[C@H](C)[C@H]1C(=O)N[C@@H](CCc2ccc(C(=O)NC)c(OC)c2)C(=O)N[C@H](C(=O)N2CCCCC2)CC(=O)N(C)[C@H](CC(C)C)C(=O)N[C@@H](COC(C)(C)C)C(=O)N(C)[C@@H](CC(C)C)C(=O)N[C@@H]([C@@H](C)O)C(=O)N(C)[C@@H](Cc2ccccc2)C(=O)N(C)[C@@H](CC(C)C)C(=O)NCC(=O)N1C` [AP264] ([dNMeL]S(tBu)[NMeL]T[NMeF][NMeL]G[NMeI][hPhe(3-OMe,4-CONHMe)]D-Piperidide; lactam N-10) returned a Papp in data set [1] (Caco-2, Caco-2 (cm/sec), membrane permeability, Caco-2) of 0.17 ×10⁻⁶ cm/s.

Take `CC[C@H](C)[C@@H]1NC(=O)[C@H](CC(C)C)N(C)C(=O)[C@H](C)N(C)C(=O)[C@H]([C@@H](C)O)NC(=O)[C@H](Cc2ccccc2)N(C)C(=O)[C@H](C)N(C)C(=O)[C@@H](C)N(C)C(=O)C[C@@H](C(=O)N(C)[C@@H](Cc2ccccc2)C(=O)N(C)[C@@H](Cc2ccccc2)C(=O)N[C@@H](C)C(=O)N2CCCCC2)NC(=O)[C@H](C(C)C)N(C)C(=O)[C@H](CC(C)C)N(C)C1=O` [pd201] ([dNMeA][NMeA][NMeF]T[NMeA][NMeL]I[NMeL][NMeV]D[NMeF][NMeF]A-Piperidide; lactam N-10): the apparent permeability coefficient (Papp) in data set [1] (Caco-2, Caco-2 (cm/sec), Table 36, Papp, sequences having Papp ≥ 1.0 × 10^−6 at ARC = 3) came to 2.3 ×10⁻⁶ cm/s.

In the case of `CC[C@H](C)[C@@H]1NC(=O)[C@H](CC(C)C)N(C)C(=O)CCCN(C)C(=O)C[C@@H](C(=O)N2CCCCC2)NC(=O)[C@H](CC(C)C)N(C)C(=O)[C@H](CC(C)C)N(C)C(=O)[C@H]([C@@H](C)O)NC(=O)[C@H](CC(C)C)N(C)C(=O)[C@H](COC[C@@H]2CC(F)(F)CN2)NC(=O)[C@H](CC(C)C)N(C)C(=O)[C@H](Cc2ccccc2)N(C)C1=O` [Compound G03] ([NMeGABA][NMeL]I[NMeF][NMeL]S(Pro(4,4-F2)ψ(CH2))[NMeL]T[NMeL][NMeL]D-Piperidide; lactam N-11), the apparent permeability (Papp) in data set [1] (setting [2]) was determined as 0.23 ×10⁻⁶ cm/s.

In data set [1] (setting [2]), `CCCCN1CC(=O)N(C)[C@@H](CC(C)C)C(=O)N[C@H](C(=O)N2CCCCC2)CC(=O)N(C)[C@@H](C)C(=O)N[C@@H](CCC[C@@H]2CC(F)(F)CN2)C(=O)N(C)[C@@H](CC(C)C)C(=O)N(C)[C@@H](C)C(=O)N[C@@H](C(C)C)C(=O)N(C)[C@@H](Cc2ccccc2)C(=O)N(C)[C@@H](CC(C)C)C(=O)N[C@@H]([C@@H](C)O)C1=O` [Compound H05] ([NMeA][X5][NMeL][NMeA]V[NMeF][NMeL]T[NBuGly][NMeL]D-Piperidide; lactam N-11) displayed an apparent permeability coefficient (Papp) of 1.2 ×10⁻⁶ cm/s.

(Values after patent US20230096766A1, “AMINO ACID HAVING FUNCTIONAL GROUP CAPABLE OF INTERMOLECULAR HYDROGEN BONDING, PEPTIDE COMPOUND CONTAINING SAME AND METHOD FOR PRODUCTION THEREOF” (Chugai Seiyaku Kabushiki Kaisha, priority 2018, published 2023).)
